According to the NIST ThermoML archive (doi:10.1016/j.jct.2015.06.017):
± gives the expanded uncertainty stated by the source.

Settings: Liquid, Closed cell (Static) method

In the case of C=CC [propene], the “vapor or sublimation pressure” value (282.97 K) is reported as 769 ± 8 kPa, the “vapor or sublimation pressure” value (287.57 K) is reported as 873 ± 8 kPa and the “vapor or sublimation pressure” value (293.48 K) is reported as 1028 ± 8 kPa. For the same compound, the “vapor or sublimation pressure” value (298.02 K) was 1152 ± 8 kPa, the “vapor or sublimation pressure” value (302.83 K) was 1291 ± 9 kPa and the “vapor or sublimation pressure” value (307.67 K) was 1458 ± 9 kPa. The “vapor or sublimation pressure” value (314.06 K) was 1691 ± 9 kPa, the “vapor or sublimation pressure” value (318.36 K) was 1854 ± 9 kPa and the “vapor or sublimation pressure” value (322.91 K) was 2039 ± 9 kPa. For the same compound, the “vapor or sublimation pressure” value (327.27 K) was 2239 ± 9 kPa.
